Source: article PMC9668969 (Nature Communications, 2022)
“And” between values parts separate entries of the source, which are not always exact repeats. Identical values can stand only once. Like-named read-outs stand apart in the source and are kept apart here.

Test system: WT ELIC
Experiment: Fluorescence stopped-flow liposomal Tl+ flux assay, symmetric liposomes
Assay type: biochemical, Erwinia chrysanthemi
Design: Tl+ flux quenching rate, Avg. / Tl+ flux quenching rate: unit not given here
Conditions: for time constant of activation by Tl+ flux: 10 mM propylamine; for EC50: read-out: EC50 of peak Tl+ flux rate; for Rate (stopped-flow fluorescence quenching rate) / Avg (stopped-flow fluorescence quenching rate): WT in 2:1:1 PC:PE:PG liposomes; for Rate (stopped-flow fluorescence quenching rate): single experiments; for Avg (stopped-flow fluorescence quenching rate): average of experiments
Procedure: The fluorescence sequential-mixing stopped-flow liposomal flux measurements were carried using an SX20 stopped-flow spectrofluorometer (Applied Photophysics) and Pro-Data SX software[13],[30]. 7.5 mg of the respective lipid mixture (POPC, 1:1 POPC: POPE, 1:1 POPC:POPG, 3:1 POPC:POPE, 3:1 POPC:POPG, 2:1:1 POPC:POPE:POPG) was dried in a glass vial to a thin film under a constant stream of N2. The lipids were then further dried under vacuum in a desiccator overnight. The following day the lipids were hydrated in 500 µl of reconstitution buffer (100 mM NaNO3, 10 mM HEPES, pH 7) (Buffer R), 250 µl of 75 mM 8-Aminonaphthalene-1,3,6-Trisulfonic Acid (ANTS, ThermoFisher Scientific) in buffer R, and doped with ~18 mg of CHAPS (Anatrace). The mixture was vortexed and then sonicated with heat until completely solubilized. Following the sonication, the solution was brought to RT then 3.5 µl of 6.7 mg/ml ELIC in Buffer A with 0.02% DDM was added (3 µg per mg of lipid). This combined solution was incubated at RT for 30 min, followed by the addition of 1 ml of 1:1 v/v SM-2 BioBeads in Buffer R and an additional 250 µl of 75 mM ANTS in Buffer R. This mixture was incubated at RT for 2.5 hr with gentle mixing. The liposome suspension was then extruded with an Avanti mini-extruder and 0.1 µm membrane (30×). The extruded liposomes were stored at 13 °C overnight with gentle rotation. The next day, the liposomes were diluted to 2.5 mL using assay buffer (140 mM NaNO3, 10 mM HEPES, pH 7) (Stopped-flow Buffer A), loaded into a PD-10 desalting column (Cytiva), eluted with 3 mL of Stopped-flow Buffer A and subsequently diluted 5-fold with Stopped-flow Buffer A.
Using propylamine as the agonist, the assay and analysis was carried out as previously described[13],[30]. ELIC-containing liposomes were first mixed 1:1 with Buffer A containing 2× the concentration of propylamine. After a variable delay of 10 ms to 25 s, the sample was then mixed 1:1 with a quenching buffer (90 mM NaNO3, 50 mM TlNO3, 10 mM HEPES, pH 7), and ANTS fluorescence (ex. 360 nm, fluorescence above 420 nm) was recorded for 1 s. For each delay time, 5 repeat measurements were obtained. The data were collected using Applied Photophysics Pro-Data SX software. The fluorescence quenching traces were fit to a stretched exponential (Eq. 2a) and the rate of Tl^+ influx was determined at 2 ms (Eq. 2b).2a Ft=F∞+F0−F∞⋅e^−t/τ^β 2b kt=β/τ⋅2ms/τ^(β−1) where Ft, F∞, F0 are the fluorescence at time t, final fluorescence and initial fluorescence. τ is the time constant, β the stretched exponential factor, and kt the calculated rate of Tl^+ influx at 2 ms. The time course of desensitization was also fit to a double exponential and a weighted time constant was calculated as was done for the patch-clamp data using Origin 2019b. All replicates were taken from independent samples.

SMILES: CCCN [propylamine]
- time constant of activation by Tl+ flux (2:1:1 liposomes): 41 ± 34 ms
- time constant of activation by Tl+ flux (POPC liposomes): 20 ± 6 ms
- EC50 (2:1:1 POPC:POPE:POPG liposomes, no BaCl2, Hill fit): 2400 µM and ~2000 µM
- Hill n of peak Tl+ flux dose response (2:1:1 liposomes): 2.2 ± 0.7
- Hill n of peak Tl+ flux dose response (POPC liposomes): 3.6 ± 0.6
- EC50 (POPC liposomes, Hill fit): 4300 ± 1400 µM
- Tl+ flux quenching rate, Avg. (WT 1:1 PC:PE 10 mM PA, delay 0.01 s): 12.8731
- Tl+ flux quenching rate, Avg. (WT 1:1 PC:PE 10 mM PA, delay 0.025 s): 18.7932
- Tl+ flux quenching rate, Avg. (WT 1:1 PC:PE 10 mM PA, delay 0.05 s): 16.1105
- Tl+ flux quenching rate, Avg. (WT 1:1 PC:PE 10 mM PA, delay 0.1 s): 21.9541
- Tl+ flux quenching rate, Avg. (WT 1:1 PC:PE 10 mM PA, delay 0.25 s): 19.0107
- Tl+ flux quenching rate, Avg. (WT 1:1 PC:PE 10 mM PA, delay 0.5 s): 18.8714
- Tl+ flux quenching rate, Avg. (WT 1:1 PC:PE 10 mM PA, delay 1 s): 13.7475
- Tl+ flux quenching rate, Avg. (WT 1:1 PC:PE 10 mM PA, delay 2.5 s): 11.8878
- Tl+ flux quenching rate, Avg. (WT 1:1 PC:PE 10 mM PA, delay 5 s): 9.713
- Tl+ flux quenching rate, Avg. (WT 1:1 PC:PE 10 mM PA, delay 10 s): 6.252
- Tl+ flux quenching rate, Avg. (WT 1:1 PC:PE 10 mM PA, delay 25 s): 0.8964
- Tl+ flux quenching rate, Avg. (WT 1:1 PC:PG 10 mM PA, delay 0.01 s): 3.795
- Tl+ flux quenching rate, Avg. (WT 1:1 PC:PG 10 mM PA, delay 0.025 s): 9.924
- Tl+ flux quenching rate, Avg. (WT 1:1 PC:PG 10 mM PA, delay 0.05 s): 11.1292
- Tl+ flux quenching rate, Avg. (WT 1:1 PC:PG 10 mM PA, delay 0.1 s): 12.6513
- Tl+ flux quenching rate, Avg. (WT 1:1 PC:PG 10 mM PA, delay 0.25 s): 13.2242
- Tl+ flux quenching rate, Avg. (WT 1:1 PC:PG 10 mM PA, delay 0.5 s): 14.1908
- Tl+ flux quenching rate, Avg. (WT 1:1 PC:PG 10 mM PA, delay 1 s): 14.7233
- Tl+ flux quenching rate, Avg. (WT 1:1 PC:PG 10 mM PA, delay 2.5 s): 12.796
- Tl+ flux quenching rate, Avg. (WT 1:1 PC:PG 10 mM PA, delay 5 s): 11.2973
- Tl+ flux quenching rate, Avg. (WT 1:1 PC:PG 10 mM PA, delay 10 s): 8.515
- Tl+ flux quenching rate, Avg. (WT 1:1 PC:PG 10 mM PA, delay 25 s): 1.356
- Tl+ flux quenching rate, Avg. (WT 2:1:1 PC:PE:PG 10 mM PA, delay 0.01 s): 108.066
- Tl+ flux quenching rate, Avg. (WT 2:1:1 PC:PE:PG 10 mM PA, delay 0.025 s): 129.134
- Tl+ flux quenching rate, Avg. (WT 2:1:1 PC:PE:PG 10 mM PA, delay 0.05 s): 140.06
- Tl+ flux quenching rate, Avg. (WT 2:1:1 PC:PE:PG 10 mM PA, delay 0.1 s): 141.696
- Tl+ flux quenching rate, Avg. (WT 2:1:1 PC:PE:PG 10 mM PA, delay 0.25 s): 158.52
- Tl+ flux quenching rate, Avg. (WT 2:1:1 PC:PE:PG 10 mM PA, delay 0.5 s): 169.325
- Tl+ flux quenching rate, Avg. (WT 2:1:1 PC:PE:PG 10 mM PA, delay 1 s): 150.743
- Tl+ flux quenching rate, Avg. (WT 2:1:1 PC:PE:PG 10 mM PA, delay 2.5 s): 114.107
- Tl+ flux quenching rate, Avg. (WT 2:1:1 PC:PE:PG 10 mM PA, delay 5 s): 89.8389
- Tl+ flux quenching rate, Avg. (WT 2:1:1 PC:PE:PG 10 mM PA, delay 10 s): 66.5759
- Tl+ flux quenching rate, Avg. (WT 2:1:1 PC:PE:PG 10 mM PA, delay 25 s): 19.0264
- Tl+ flux quenching rate, Avg. (WT 3:1 PC:PE 10 mM PA, delay 0.01 s): 13.3934
- Tl+ flux quenching rate, Avg. (WT 3:1 PC:PE 10 mM PA, delay 0.025 s): 16.8702
- Tl+ flux quenching rate, Avg. (WT 3:1 PC:PE 10 mM PA, delay 0.05 s): 17.8262
- Tl+ flux quenching rate, Avg. (WT 3:1 PC:PE 10 mM PA, delay 0.1 s): 25.5678
- Tl+ flux quenching rate, Avg. (WT 3:1 PC:PE 10 mM PA, delay 0.25 s): 25.5466
- Tl+ flux quenching rate, Avg. (WT 3:1 PC:PE 10 mM PA, delay 0.5 s): 29.8205
- Tl+ flux quenching rate, Avg. (WT 3:1 PC:PE 10 mM PA, delay 1 s): 23.2733
- Tl+ flux quenching rate, Avg. (WT 3:1 PC:PE 10 mM PA, delay 2.5 s): 17.3881
- Tl+ flux quenching rate, Avg. (WT 3:1 PC:PE 10 mM PA, delay 5 s): 8.6052
- Tl+ flux quenching rate, Avg. (WT 3:1 PC:PE 10 mM PA, delay 10 s): 3.015
- Tl+ flux quenching rate, Avg. (WT 3:1 PC:PE 10 mM PA, delay 25 s): 0.5341
- Tl+ flux quenching rate, Avg. (WT 3:1 PC:PG 10 mM PA, delay 0.01 s): 3.538
- Tl+ flux quenching rate, Avg. (WT 3:1 PC:PG 10 mM PA, delay 0.025 s): 5.637
- Tl+ flux quenching rate, Avg. (WT 3:1 PC:PG 10 mM PA, delay 0.05 s): 6.577
- Tl+ flux quenching rate, Avg. (WT 3:1 PC:PG 10 mM PA, delay 0.1 s): 5.156
- Tl+ flux quenching rate, Avg. (WT 3:1 PC:PG 10 mM PA, delay 0.25 s): 10.2935
- Tl+ flux quenching rate, Avg. (WT 3:1 PC:PG 10 mM PA, delay 0.5 s): 10.5897
- Tl+ flux quenching rate, Avg. (WT 3:1 PC:PG 10 mM PA, delay 1 s): 10.9346
- Tl+ flux quenching rate, Avg. (WT 3:1 PC:PG 10 mM PA, delay 2.5 s): 9.589
- Tl+ flux quenching rate, Avg. (WT 3:1 PC:PG 10 mM PA, delay 5 s): 8.149
- Tl+ flux quenching rate, Avg. (WT 3:1 PC:PG 10 mM PA, delay 10 s): 1.496
- Tl+ flux quenching rate, Avg. (WT 3:1 PC:PG 10 mM PA, delay 25 s): 1.028
- Tl+ flux quenching rate, Avg. (WT PC 10 mM PA, delay 0.01 s): 3.242
- Tl+ flux quenching rate, Avg. (WT PC 10 mM PA, delay 0.025 s): 7.793
- Tl+ flux quenching rate, Avg. (WT PC 10 mM PA, delay 0.05 s): 10.0904
- Tl+ flux quenching rate, Avg. (WT PC 10 mM PA, delay 0.1 s): 10.8806
- Tl+ flux quenching rate, Avg. (WT PC 10 mM PA, delay 0.25 s): 11.6946
- Tl+ flux quenching rate, Avg. (WT PC 10 mM PA, delay 1 s): 9.9293
- Tl+ flux quenching rate, Avg. (WT PC 10 mM PA, delay 2.5 s): 4.516
- Tl+ flux quenching rate, Avg. (WT PC 10 mM PA, delay 5 s): 0.8684
- Tl+ flux quenching rate, Avg. (WT PC 10 mM PA, delay 10 s): 0.09487
- Tl+ flux quenching rate, Avg. (WT PC 10 mM PA, delay 25 s): 0.1384
- Tl+ flux quenching rate, Avg. (WT PC 10 mM PA, delay printed 0.05 (line r87, between 0.25 and 1)): 13.718
- Rate (stopped-flow fluorescence quenching rate) (0.3 mM PA, delay time 0): 0
- Avg (stopped-flow fluorescence quenching rate) (0.3 mM PA, delay time 0.025): 0.05393
- Avg (stopped-flow fluorescence quenching rate) (0.3 mM PA, delay time 0.05): 0.1144
- Avg (stopped-flow fluorescence quenching rate) (0.3 mM PA, delay time 0.1): 0.02985
- Rate (stopped-flow fluorescence quenching rate) (0.3 mM PA, delay time 0.1, listed as PA): 0.02819 and 0.02444 and 0.03693
- Avg (stopped-flow fluorescence quenching rate) (0.3 mM PA, delay time 0.25): 0.2226
- Avg (stopped-flow fluorescence quenching rate) (0.3 mM PA, delay time 0.5): 0.07829
- Rate (stopped-flow fluorescence quenching rate) (0.3 mM PA, delay time 0.5, listed as PA): 0.05209 and 0.08034 and 0.1024
- Avg (stopped-flow fluorescence quenching rate) (0.3 mM PA, delay time 1): 0.1269
- Avg (stopped-flow fluorescence quenching rate) (0.3 mM PA, delay time 2.5): 0.07966
- Avg (stopped-flow fluorescence quenching rate) (0.3 mM PA, delay time 5): 0.1012
- Avg (stopped-flow fluorescence quenching rate) (0.3 mM PA, delay time 10): 0.07302
- Avg (stopped-flow fluorescence quenching rate) (0.3 mM PA, delay time 25): 0.144
- Rate (stopped-flow fluorescence quenching rate) (0.3 mM PA, delay time 25, listed as PA): 0.1101 and 0.1736 and 0.1484
- Rate (stopped-flow fluorescence quenching rate) (1 mM PA, delay time 0): 0
- Avg (stopped-flow fluorescence quenching rate) (1 mM PA, delay time 0.025): 0.05821
- Avg (stopped-flow fluorescence quenching rate) (1 mM PA, delay time 0.05): 0.3418
- Avg (stopped-flow fluorescence quenching rate) (1 mM PA, delay time 0.1): 0.7543
- Avg (stopped-flow fluorescence quenching rate) (1 mM PA, delay time 0.25): 9.601
- Avg (stopped-flow fluorescence quenching rate) (1 mM PA, delay time 0.5): 9.433
- Avg (stopped-flow fluorescence quenching rate) (1 mM PA, delay time 1): 13.1765
- Avg (stopped-flow fluorescence quenching rate) (1 mM PA, delay time 2.5): 13.927
- Avg (stopped-flow fluorescence quenching rate) (1 mM PA, delay time 5): 16.0207
- Avg (stopped-flow fluorescence quenching rate) (1 mM PA, delay time 10): 13.7137
- Avg (stopped-flow fluorescence quenching rate) (1 mM PA, delay time 25): 8.387
- Rate (stopped-flow fluorescence quenching rate) (3 mM PA, delay time 0): 0
- Avg (stopped-flow fluorescence quenching rate) (3 mM PA, delay time 0.05): 279.785
- Avg (stopped-flow fluorescence quenching rate) (3 mM PA, delay time 0.1): 279.666
- Avg (stopped-flow fluorescence quenching rate) (3 mM PA, delay time 0.25): 300.719
- Avg (stopped-flow fluorescence quenching rate) (3 mM PA, delay time 0.5): 352.59
- Avg (stopped-flow fluorescence quenching rate) (3 mM PA, delay time 1): 284.973
- Avg (stopped-flow fluorescence quenching rate) (3 mM PA, delay time 2.5): 176.344
